Experimental data from ChEMBL document CHEMBL2346579, “Structure-based approaches to ligands for G-protein-coupled adenosine and P2Y receptors, from small molecules to nanoconjugates” (J Med Chem, 2013).
Values belong to the compound of their own block, whether it stands above or below them.

Tests used:
[1] = target: Adenosine receptor A2a (Homo sapiens) (UniProt P29274); experiment: Negative allosteric modulation of A2A adenosine receptor (unknown origin)
[2] = target: Adenosine receptor A2a (Homo sapiens) (UniProt P29274); experiment: Antagonist activity at A2A adenosine receptor (unknown origin)
[3] = target: Adenosine receptor A2a (Homo sapiens) (UniProt P29274); experiment: Positive allosteric modulation of A2A adenosine receptor (unknown origin)
[4] = target: Adenosine receptor A2a (Homo sapiens) (UniProt P29274); experiment: Binding affinity to A2A adenosine receptor (unknown origin)

Sequence of Adenosine receptor A2a (Homo sapiens) (P29274 whole entry): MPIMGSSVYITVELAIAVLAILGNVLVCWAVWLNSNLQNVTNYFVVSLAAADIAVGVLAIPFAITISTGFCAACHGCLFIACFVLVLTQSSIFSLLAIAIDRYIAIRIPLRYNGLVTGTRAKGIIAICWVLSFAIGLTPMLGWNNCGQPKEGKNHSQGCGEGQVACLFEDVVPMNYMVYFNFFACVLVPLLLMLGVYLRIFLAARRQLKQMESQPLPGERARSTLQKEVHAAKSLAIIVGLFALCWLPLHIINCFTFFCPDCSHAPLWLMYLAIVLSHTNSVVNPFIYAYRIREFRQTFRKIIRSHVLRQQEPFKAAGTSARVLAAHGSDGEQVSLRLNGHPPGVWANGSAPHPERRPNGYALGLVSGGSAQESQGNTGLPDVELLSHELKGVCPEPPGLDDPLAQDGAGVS

- Activity [1]: 2 mM
SMILES: Oc1cccc(Nc2ccccc2)c1

- Activity [2]: 200 nM
SMILES: Cc1cc(C)nc(NC(=N)NCCc2c[nH]c3ccc(F)cc23)n1

- Activity [2]: 30 nM
SMILES: Nc1nnc(-c2cc(C(F)(F)F)nc(C(F)(F)F)c2)c(-c2ccccc2)n1

- Activity [3]: 2 mM
SMILES: O=C(O)CCN1CCCc2ccccc21

- Activity [4]: 70 nM
SMILES: Nc1nc(-c2ccc(F)cc2)ns1
